Reference: EPA's ToxRefDB 2

How the values were obtained:
rat [1] = conditions: Prenatal developmental toxicity study, sprague dawley, Oral, Gavage/Intubation, dose end: 15 GD
rat [2] = conditions: Carcinogenicity, fischer, Oral, Gavage/Intubation, dose end: 103 week, group: systemic
rat [3] = conditions: Subchronic oral toxicity in rodents, fischer, Gavage/Intubation, dose end: 13 week, group: systemic
rat [4] = conditions: Sub-acute repeat dose toxicity; fischer; Oral; Gavage/Intubation; dose end: 16 day; group: systemic; systemic / pathology microscopic / stomach / hyperkeratosis + systemic / pathology microscopic / stomach / hyperplasia + systemic / …
mouse [5] = conditions: Subchronic oral toxicity in rodents, b6c3f1, Gavage/Intubation, dose end: 13 week, group: systemic
mouse [6] = conditions: Sub-acute repeat dose toxicity; b6c3f1; Oral; Gavage/Intubation; dose end: 16 day; group: systemic; systemic / pathology gross / stomach / erosion + systemic / pathology gross / stomach / ulcer + systemic / pathology microscopic / stomach…
mouse [7] = conditions: Carcinogenicity; b6c3f1; Oral; Gavage/Intubation; dose end: 103 week; group: systemic; systemic / pathology microscopic / stomach / acanthosis + systemic / pathology microscopic / stomach / hyperkeratosis + systemic / pathology…
rat [8] = conditions: Subchronic dermal toxicity, sprague dawley, Topical, dose end: 13 week, group: systemic, systemic / pathology microscopic / liver / inflammation + systemic / pathology microscopic / liver / necrosis + systemic / in life …
dog [9] = conditions: Subchronic oral toxicity in nonrodent, beagle, Capsule, dose end: 93 day, group: systemic
mouse [10] = conditions: Carcinogenicity, other, Oral, Feed, dose end: 104 week, group: systemic
dog [11] = conditions: Chronic toxicity, beagle, Oral, Capsule, dose end: 52 week, group: systemic
rat [12] = conditions: Subchronic oral toxicity in rodents, sprague dawley, Feed, dose end: 13 week, group: systemic
rat [13] = conditions: Combined chronic toxicity/carcinogenicity, sprague dawley, Oral, Feed, dose end: 104 week, group: systemic
mouse [14] = conditions: Subchronic oral toxicity in rodents, b6c3f1, Feed, dose end: 13 week, group: systemic
rat [15] = conditions: Subchronic oral toxicity in rodents, fischer, Feed, dose end: 13 week, group: systemic
rat [16] = conditions: Carcinogenicity, fischer, Oral, Feed, dose end: 103 week, group: systemic
rat [17] = conditions: Subchronic oral toxicity in rodents, fischer, Feed, dose end: 13 week, group: systemic, systemic / in life observation / body weight / body weight gain + systemic / pathology gross / urinary bladder / stones
rat [18] = conditions: Subchronic oral toxicity in rodents, fischer, Feed, dose end: 13 week, group: systemic; remark: listed apart in the source
mouse [19] = conditions: Carcinogenicity; b6c3f1; Oral; Feed; dose end: 103 week; group: systemic; systemic / pathology gross / urinary bladder / stones + systemic / pathology microscopic / urinary bladder / hyperplasia + systemic / …
[20] = group: developmental, systemic / in life observation / body weight / fetal weight
[21] = group: maternal, systemic / in life observation / body weight / body weight gain + systemic / in life observation / food consumption / food consumption + …
[22] = systemic / pathology microscopic / stomach / acanthosis + systemic / pathology microscopic / stomach / hyperplasia + systemic / pathology …
[23] = systemic / pathology microscopic / stomach / acanthosis + systemic / pathology microscopic / stomach / hyperkeratosis
[24] = systemic / pathology microscopic / stomach / acanthosis + systemic / pathology microscopic / stomach / hyperkeratosis + systemic / in life …
[25] = systemic / organ weight / kidney / relative to body weight + systemic / organ weight / liver / relative to body weight
[26] = systemic / organ weight / kidney / relative to body weight + systemic / organ weight / liver / relative to body weight + systemic / …
[27] = systemic / clinical chemistry / albumin / albumin + systemic / clinical chemistry / alkaline phosphatase (alp/alk) / alkaline phosphatase (…
[28] = systemic / clinical chemistry / cholesterol / cholesterol
[29] = systemic / in life observation / body weight / body weight
[30] = systemic / in life observation / body weight / body weight + systemic / organ weight / kidney / absolute + systemic / organ weight / liver…
[31] = systemic / clinical chemistry / alkaline phosphatase (alp/alk) / alkaline phosphatase (alp/alk) + systemic / clinical chemistry / …
[32] = systemic / in life observation / body weight / body weight + systemic / in life observation / clinical signs / distended abdomens + systemic…
[33] = systemic / organ weight / kidney / relative to body weight
[34] = systemic / in life observation / body weight / body weight + systemic / in life observation / food consumption / food consumption + systemic…
[35] = systemic / in life observation / body weight / body weight gain
[36] = systemic / in life observation / body weight / body weight gain + systemic / pathology gross / urinary bladder / stones + systemic / …
[37] = systemic / pathology gross / urinary bladder / stones
[38] = systemic / pathology gross / urinary bladder / stones + systemic / in life observation / body weight / body weight gain + systemic / …
[39] = systemic / in life observation / body weight / body weight gain + systemic / in life observation / food consumption / food consumption + …

## CC(=O)OC1CC(C)OC(C)O1 (configuration not stated) [Dimethoxane]
Rat [1]; [20]
  LEL: 500 mg/kg/day
  LOAEL: 500 mg/kg/day
  NEL: 250 mg/kg/day
  NOAEL: 250 mg/kg/day
Rat [1]; group: maternal, systemic / in life observation / body weight / body weight gain + systemic / in life observation / food consumption / food consumption
  LOAEL: 250 mg/kg/day
Rat [1]; [21]
  LEL: 250 mg/kg/day
  NEL: 125 mg/kg/day
  NOAEL: 125 mg/kg/day
Rat [2]; systemic / pathology microscopic / stomach / acanthosis + systemic / pathology microscopic / stomach / hyperkeratosis + systemic / pathology…
  LEL: 125 mg/kg/day
Rat [2]; [22]
  LOAEL: > 250 mg/kg/day
  NOAEL: ≥ 250 mg/kg/day
Rat [3]; [23]
  LEL: 62 mg/kg/day
  LOAEL: 250 mg/kg/day
Rat [3]; [24]
  NEL: 31 mg/kg/day
  NOAEL: 125 mg/kg/day
Rat [4]
  LEL: 125 mg/kg/day
  LOAEL: 250 mg/kg/day
  NEL: < 125 mg/kg/day
  NOAEL: 125 mg/kg/day
Mouse [5]; [25]
  LEL: 31 mg/kg/day
  NEL: < 31 mg/kg/day
Mouse [5]; [26]
  LOAEL: > 500 mg/kg/day
  NOAEL: ≥ 500 mg/kg/day
Mouse [6]
  LEL: 500 mg/kg/day
  LOAEL: 500 mg/kg/day
  NEL: 250 mg/kg/day
  NOAEL: 250 mg/kg/day
Mouse [7]
  LEL: 250 mg/kg/day
  LOAEL: 250 mg/kg/day
  NEL: < 250 mg/kg/day
  NOAEL: < 250 mg/kg/day
Rat [8]
  LEL: 300 mg/kg/day
  LOAEL: 300 mg/kg/day
  NEL: 100 mg/kg/day
  NOAEL: 100 mg/kg/day

## CO/C=C(/C(=O)OC)c1ccccc1Oc1cc(Oc2ccccc2C#N)ncn1 [Azoxystrobin]
Dog [9]; [27]
  LOAEL: 250 mg/kg/day
  NOAEL: 50 mg/kg/day
Dog [9]; [28]
  LEL: 10 mg/kg/day
  NEL: < 10 mg/kg/day
Mouse [10]; [29]
  LOAEL: 272 mg/kg/day
Mouse [10]; [30]
  LEL: 272 mg/kg/day
  NEL: 37.5 mg/kg/day
  NOAEL: 37.5 mg/kg/day
Dog [11]; [31]
  LOAEL: 200 mg/kg/day
  NEL: 3 mg/kg/day
  NOAEL: 25 mg/kg/day
Dog [11]; systemic / organ weight / liver / absolute + systemic / clinical chemistry / cholesterol / cholesterol + systemic / clinical chemistry / …
  LEL: 25 mg/kg/day
Rat [12]; [32]
  LOAEL: 211 mg/kg/day
  NOAEL: 20.4 mg/kg/day
Rat [12]; [33]
  LEL: 22.4 mg/kg/day
  NEL: < 22.4 mg/kg/day
Rat [13]; systemic / clinical chemistry / aspartate aminotransferase (ast/sgot) / aspartate aminotransferase (ast/sgot) + systemic / clinical …
  NEL: 117 mg/kg/day
Rat [13]; [34]
  LOAEL: 82.4 mg/kg/day
  NOAEL: 18.2 mg/kg/day

## Nc1nc(N)nc(N)n1 [Melamine]
Mouse [14]; [35]
  LEL: 900 mg/kg/day
  NEL: < 900 mg/kg/day
Mouse [14]; [36]
  LOAEL: > 2700 mg/kg/day
  NOAEL: ≥ 2700 mg/kg/day
Rat [15]; [37]
  LEL: 75 mg/kg/day
Rat [15]; [38]
  LOAEL: > 600 mg/kg/day
  NEL: 37.5 mg/kg/day
  NOAEL: ≥ 600 mg/kg/day
Rat [16]; [29]
  LEL: 112 mg/kg/day
  NEL: < 112 mg/kg/day
Rat [16]; systemic / pathology microscopic / kidney / inflammation + systemic / pathology gross / urinary bladder / stones
  LOAEL: 225 mg/kg/day
Rat [17]
  LEL: 875 mg/kg/day
  LOAEL: > 875 mg/kg/day
  NEL: 500 mg/kg/day
  NOAEL: ≥ 875 mg/kg/day
Rat [18]; [39]
  LOAEL: > 900 mg/kg/day
  NOAEL: ≥ 900 mg/kg/day
Rat [18]; [37]
  LEL: 300 mg/kg/day
  NEL: < 300 mg/kg/day
Mouse [19]
  LEL: 338 mg/kg/day
  LOAEL: 338 mg/kg/day
  NEL: < 338 mg/kg/day
  NOAEL: < 338 mg/kg/day
